Measured values published in the supplement of paper PMC10307832.

Experiments:
Experiment in all cases: relative viability (nuclei count vs DMSO), 5 days (fraction); higher = more cells survive
[1] = compound: O[C@H]1CC[C@H](Nc2ncc3nc(Nc4c(F)cc(F)cc4F)n([C@H]4CCOC4)c3n2)CC1 [Tanzisertib] + CCNC(=O)c1noc(-c2cc(C(C)C)c(O)cc2O)c1-c1ccc(CN2CCOCC2)cc1 [Luminespib] (partner 0.01 µM)
How it was run: (§1)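 Relative viability divides the nuclei count in treated wells by that in vehicle wells. Lung cancer cell lines were seeded in 1536-well plates, dosed by pin tool the next day, and fixed and stained after 5 days in one step with final 0.05% Triton X-100, 1% formaldehyde and 1 ug/ml Hoechst. Dosing was a single drug or a fixed anchor-drug dose plus five library-drug doses (not always all listed) in √10 steps, and values are medians of duplicate plates imaged at 4×.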

[2] = compound: C[C@@H](N)c1ccc(C(=O)Nc2ccnc3[nH]ccc23)cc1 + Nc1ncn([C@H]2C[C@H](O)[C@@H](CO)O2)c(=O)n1 [Decitabine] (partner 2 µM)
How it was run: as §1

[3] = compound: C1CNCCC1C2=CC(=NN2)C3=CC=NC=C3 + CC(C)C[C@H](NC(=O)[C@H](Cc1ccccc1)NC(=O)c1cnccn1)B(O)O [Bortezomib] (partner 0.002 µM)
How it was run: as §1

[4] = compound: C1CNCCC1C2=CC(=NN2)C3=CC=NC=C3 + C[C@@H](Oc1cc(-c2cnn(C3CCNCC3)c2)cnc1N)c1c(Cl)ccc(F)c1Cl [Crizotinib] (partner 1 µM)
How it was run: as §1

Row | Cell Line | relative viability ([1]; first compound 0.08 µM) | relative viability ([1]; first compound 0.253 µM) | relative viability ([1]; first compound 0.8 µM) | relative viability ([1]; first compound 2.53 µM) | relative viability ([1]; first compound 8 µM) | relative viability ([2]; first compound 0.04 µM) | relative viability ([2]; first compound 0.1265 µM) | relative viability ([2]; first compound 0.4 µM) | relative viability ([2]; first compound 1.265 µM) | relative viability ([2]; first compound 4 µM) | relative viability ([3]; first compound 0.08 µM) | relative viability ([3]; first compound 0.8 µM) | relative viability ([3]; first compound 2.53 µM) | relative viability ([3]; first compound 8 µM) | relative viability ([4]; first compound 0.08 µM) | relative viability ([4]; first compound 0.8 µM) | relative viability ([4]; first compound 2.53 µM) | relative viability ([4]; first compound 8 µM)
1 | NCI-H2087 | 0.182 | 0.2 | 0.166 | 0.21 | 0.168 | 0.293 | 0.325 | 0.357 | 0.362 | 0.31 | 0.866 | 1.01 | 0.728 | 0.763 | 0.837 | 1.02 | 0.976 | 0.666
2 | LU99A | 0.204 | 0.238 | 0.239 | 0.26 | 0.227 | – | 1.03 | 0.824 | 0.773 | 0.598 | 1.1 | 1.26 | 1.35 | 1.08 | 0.5 | 0.586 | 0.596 | 0.558
3 | BEN | 0.352 | 0.77 | 0.814 | 0.382 | 0.209 | 0.53 | 0.732 | 0.822 | 0.757 | 0.568 | 0.724 | 0.592 | 0.852 | 0.96 | 0.644 | 0.87 | 0.878 | 0.823
4 | SK-LU-1 | 0.229 | 0.231 | 0.189 | 0.181 | 0.18 | 0.587 | 0.654 | 0.585 | 0.516 | 0.472 | 1 | – | 1.38 | 1.27 | 1.03 | 0.936 | 0.989 | 0.947
5 | NCI-H1975 | 0.331 | 0.142 | 0.232 | 0.161 | 0.247 | 0.365 | 0.381 | 0.426 | 0.356 | 0.28 | 0.396 | 0.423 | 0.479 | 0.369 | 0.988 | 1.05 | 0.963 | 0.889
6 | RERF-LC-KJ | 1.29 | 1.17 | 1.29 | 1.16 | 1.22 | 0.762 | 0.764 | 0.75 | 0.806 | 0.634 | 1.09 | 1.22 | 1.16 | 1.12 | 0.872 | 0.894 | 0.912 | 0.759
7 | NCI-H441 | 0.312 | 0.338 | 0.29 | 0.279 | 0.314 | 0.276 | 0.279 | 0.225 | 0.258 | 0.238 | – | 0.764 | 0.609 | 0.269 | 0.709 | 0.713 | 0.853 | 0.862
8 | LCLC-103H | 1 | 0.888 | 0.941 | 1.05 | 1.12 | 0.652 | 0.69 | 0.724 | 0.716 | 0.652 | 1.06 | 0.936 | 1.3 | 1.12 | 1.11 | 1.04 | 1.07 | 0.935
9 | NCI-H1915 | 0.875 | 0.839 | 0.808 | 0.789 | 0.776 | – | 0.265 | 0.242 | – | 0.235 | 1 | 0.977 | 0.932 | 0.934 | 0.88 | 0.906 | 0.855 | 0.909
